Measurements: patent publication US6011039A, “Aminopyridine derivatives” (Banyu Pharmaceutical Co., Ltd., priority 1996, dated 2000)

Experiments:
[1] = tested on: NPY-induced feeding behavior; test: Antagonistic Test Against NPY-Induced Feeding Behavior In Vivo; design: species or system male SD rat; conditions: 200 μg/head, into lateral ventricle, simultaneously with NPY (5 μg/head/10 μl); food intake for two hours; Duncan's test, p<0.05 significant
Experimental: Pharmacological Test Example 2
(Antagonistic Test Against NPY-Induced Feeding Behavior In Vivo)
Under pentobarbital anesthesia (intraperitoneal single administration of 200 mg/kg), a chronic guide cannula (outer diameter: 0.8 mm, inner diameter: 0.5 mm, length: 10 mm) was inserted stereotaxically in the right lateral cerebral ventricle of a male SD rat (7 to 8 weeks old, 200 to 300 g) and fixed by a dental resin. The forward end position of the guide cannula was at 0.9 mm posterior to bregma, 1.2 mm to the right of the midline and 1.5 mm ventral to the brain surface, so that when an inner needle was inserted, the forward end extended beyond the forward end of the guide cannula by about 2 mm and reached the lateral ventricle. After a recovery period of about one week, NPY (5 μg/head/10 μl) was administered into the lateral ventricle. The test compound was simultaneously administered as mixed with NPY, and food intake for two hours after the administration was measured. With respect to the obtained result, a multiple comparative determination was carried out by Duncan's test, whereby p<0.05 was taken as significant.

NPY Y1 receptor = target: T1, NPY Y1 receptor (Homo sapiens, UniProt P25929); test: NPY Binding Inhibition Test ([125I] peptide YY binding to SK-N-MC cell membranes); conditions: SK-N-MC membrane, 25° C., 2 hours, pH 7.4, 20,000 cpm [125I] peptide YY; read-out: IC50 (50% inhibition concentration against specific [125I] peptide YY binding)
T1 construct: A membrane sample prepared from SK-N-MC cells derived from human neuroblastoma; endogenous in cells; host or cells: SK-N-MC
T1 sequence (P25929 1-384): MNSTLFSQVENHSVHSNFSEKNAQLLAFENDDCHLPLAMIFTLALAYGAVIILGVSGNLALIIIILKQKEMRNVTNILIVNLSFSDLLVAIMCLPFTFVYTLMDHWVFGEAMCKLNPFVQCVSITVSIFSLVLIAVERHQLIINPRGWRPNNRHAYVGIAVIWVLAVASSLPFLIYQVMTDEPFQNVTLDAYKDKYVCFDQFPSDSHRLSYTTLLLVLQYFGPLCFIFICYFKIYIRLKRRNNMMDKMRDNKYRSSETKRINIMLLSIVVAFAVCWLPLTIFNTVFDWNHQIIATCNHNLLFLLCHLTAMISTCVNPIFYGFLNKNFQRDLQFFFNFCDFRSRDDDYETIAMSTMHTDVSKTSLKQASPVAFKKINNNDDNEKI
Experimental: Pharmacological Test Example 1
(NPY Binding Inhibition Test)
A membrane sample prepared from SK-N-MC cells derived from human neuroblastoma in which the expression of NPY Y1 receptor was reported, was incubated at 25° C. for 2 hours together with a test compound and 20,000 cpm of [^125 I] peptide YY (manufactured by Amersham Company) in an assay buffer (25 mM HEPES buffer solution containing 10 mM of magnesium chloride, 1 mM of phenylmethylsulfonyl fluoride, 0.1% of bacitracin and 0.5% of BSA, pH 7.4), and then subjected to filtration by a glass filter GF/C. After washing with a 50 mM Tris buffer solution containing 0.3% of BSA at pH 7.4, the radiation activity on the glass filter was measured by a gamma counter. The nonspecific binding was measured in the presence of 1 μM of peptide YY and the 50% inhibition concentration (IC50) of the test compound against specific [^125 I] peptide YY binding was obtained [Endocrinology, vol. 131, 2090 (1992)].

IC50 (NPY Y1 receptor): 0.33 nM
Structure (SMILES): C=CCOC(=O)Nc1cccc(CNc2cc(N3CCOCC3)cc(CSc3nnc(CC)s3)n2)c1 [Example 4, 6-(5-ethyl-1,3,4-thiadiazol-2-ylthiomethyl)-4-morpholino-2-[3-(2-propenyloxycarbonylamino)benzylamino]pyridine]
increase in food intake induced by NPY [1]: significantly suppressed the increase in food intake induced by NPY
